Measurements: PMC8002023, “3D Pharmacophore-Based Discovery of Novel KV10.1 Inhibitors with Antiproliferative Activity” (Cancers, 2021)

Target: T1, KV10.1 (Homo sapiens, UniProt O95259)
T1 construct: expressed in transfected cells
T1 sequence (O95259 1-962 isoform O95259-2): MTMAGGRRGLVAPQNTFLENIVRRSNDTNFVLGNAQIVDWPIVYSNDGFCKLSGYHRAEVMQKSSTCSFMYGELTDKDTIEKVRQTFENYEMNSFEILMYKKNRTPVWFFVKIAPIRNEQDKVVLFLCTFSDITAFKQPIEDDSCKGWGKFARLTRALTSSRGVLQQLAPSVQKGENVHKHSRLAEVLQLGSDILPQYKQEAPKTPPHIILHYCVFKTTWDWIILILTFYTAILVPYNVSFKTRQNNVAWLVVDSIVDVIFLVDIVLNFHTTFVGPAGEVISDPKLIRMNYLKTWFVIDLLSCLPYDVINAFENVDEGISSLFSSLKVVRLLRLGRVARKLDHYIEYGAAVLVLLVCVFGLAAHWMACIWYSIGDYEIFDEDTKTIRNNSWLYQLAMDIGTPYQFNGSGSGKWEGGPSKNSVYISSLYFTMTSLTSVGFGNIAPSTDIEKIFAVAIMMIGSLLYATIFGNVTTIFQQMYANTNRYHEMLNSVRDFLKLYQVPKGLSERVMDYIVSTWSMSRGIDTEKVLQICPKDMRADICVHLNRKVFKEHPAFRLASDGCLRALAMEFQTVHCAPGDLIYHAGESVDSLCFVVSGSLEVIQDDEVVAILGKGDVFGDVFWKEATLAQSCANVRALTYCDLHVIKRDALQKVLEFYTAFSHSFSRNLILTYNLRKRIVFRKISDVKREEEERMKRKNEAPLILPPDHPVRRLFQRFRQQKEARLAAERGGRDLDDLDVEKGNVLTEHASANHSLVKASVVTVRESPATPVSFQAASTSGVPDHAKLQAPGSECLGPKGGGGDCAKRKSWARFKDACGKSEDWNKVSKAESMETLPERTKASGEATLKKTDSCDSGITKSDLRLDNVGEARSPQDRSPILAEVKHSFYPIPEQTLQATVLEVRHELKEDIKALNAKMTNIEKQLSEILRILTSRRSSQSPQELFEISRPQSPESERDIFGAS
Assay: Whole-cell patch clamp on HEK-293 cells stably expressing KV10.1
Format: cell-based
Details: HEK293; 10 μM; mean ± standard error (or range)

For O=[N+]([O-])c1cc(C(F)(F)F)ccc1Nc1ccc(OCC(O)CN2CCOCC2)cc1 (stereo not shown) [Compound 8], which inhibition at 10 µM is on record?
Its inhibition at 10 µM is 81.2 ± 4.97%.
